This is an account of results in ChEMBL document CHEMBL5352508, “Discovery and Structure-Based Design of Inhibitors of the WD Repeat-Containing Protein 5 (WDR5)-MYC Interaction” (J Med Chem, 2023).

In data set [1] the target is WDR5-MYC (Homo sapiens, UniProt P61964). Briefly: Inhibition of N-terminal his-tagged WDR5 (1 to 334 residues) (unknown origin)/Biotin tagged Myc (256-268 residues) (unknown origin) interaction measured after 1 hrs by HTRF assay. The format is protein assay. For orientation: Time-resolved FRET reads energy transfer from a long-lived donor to a nearby acceptor.
Data set [2] deals with HL-60. Nature of the data set: Downregulation of RPL35 gene expression in human HL-60 cells at 10 uM measured after 24 hrs by RT-qPCR assay. Format: functional, cell-based. In general terms: Quantitative PCR measures a nucleic acid by following its amplification.
The test system of data set [3] is COR-L279. Briefly: Antiproliferative activity against human COR-L279 cells assessed as cell growth inhibition measured after 72 hrs by CellTier-Glo assay. Format: functional.
In data set [4] the test system is Ramos. Nature of the data set: Antiproliferative activity against human Ramos cells assessed as cell growth inhibition measured after 72 hrs by CellTier-Glo assay. The format is functional.
The test system of data set [5] is SHP77. Nature of the data set: Antiproliferative activity against human SHP77 cells assessed as cell growth inhibition measured after 72 hrs by CellTier-Glo assay. Format: functional.
In data set [6] the test system is HL-60. Briefly: Downregulation of RPL37A gene expression in human HL-60 cells at 10 uM measured after 24 hrs by RT-qPCR assay. The format is functional, cell-based.
The test system of data set [7] is HL-60. Nature of the data set: Effect on Cdc20 mRNA expression in human HL-60 cells measured after 24 hrs by RT-qPCR assay. Format: functional, cell-based.
Data set [8] deals with HL-60. Briefly: Effect on MCM10 mRNA expression in human HL-60 cells measured after 24 hrs by RT-qPCR assay. Format: functional, cell-based.
For data set [9], the system named is NB-4. Nature of the data set: Antiproliferative activity against human NB4 cells assessed as cell growth inhibition measured after 72 hrs by CellTier-Glo assay. The format is functional.
For data set [10], the system named is HL-60. Nature of the data set: Downregulation of RPL17 gene expression in human HL-60 cells at 10 uM measured after 24 hrs by RT-qPCR assay. Format: functional, cell-based.
Data set [11] concerns HL-60. Nature of the data set: Effect on MCM4 mRNA expression in human HL-60 cells measured after 24 hrs by RT-qPCR assay. The format is functional, cell-based.
Data set [12] relates to HL-60. Briefly: Antiproliferative activity against human HL-60 cells assessed as cell growth inhibition measured after 72 hrs by CellTier-Glo assay. Format: functional.
The subject of data set [13] is HL-60. Nature of the data set: Effect on AURKB mRNA expression in human HL-60 cells measured after 24 hrs by RT-qPCR assay. The format is functional, cell-based.
The test system of data set [14] is Daudi. Briefly: Antiproliferative activity against human Daudi cells assessed as cell growth inhibition measured after 72 hrs by CellTier-Glo assay. Format: functional.
The target in data set [15] is Histone-lysine N-methyltransferase 2A/WDR5 (Homo sapiens) (UniProt P61964+Q03164). Nature of the data set: Inhibition of WDR5 (unknown origin)/MLL (unknown origin) interaction by NanoBiT assay. The format is protein assay.
Data set [16] concerns HL-60. Nature of the data set: Downregulation of RPL23 gene expression in human HL-60 cells at 10 uM measured after 24 hrs by RT-qPCR assay. The format is functional, cell-based.
In data set [17] the test system is NCI-H1650. Briefly: Antiproliferative activity against human NCI-H1650 cells assessed as cell growth inhibition measured after 72 hrs by CellTier-Glo assay. The format is functional.
In data set [18] the test system is NCI-H520. Nature of the data set: Antiproliferative activity against human NCI-H520 cells assessed as cell growth inhibition measured after 72 hrs by CellTier-Glo assay. The format is functional.
Data set [19] in a line: Microsomal stability in mouse liver microsome assessed as intrinsic clearance. Format: ADME. The note with it: liver microsomes, read-out: CLH. Background: Liver microsomes are a subcellular fraction often used to study metabolism.
The nature of data set [20]: Apparent permeability of the compound in dog MDCKII-LE cells measured upto 1.5 hrs. The format is ADME, cell-based, Canis lupus familiaris. Particulars: MDCK.

SMILES strings stand for the structures. Activity calls are given as the source filed them. The rule behind the calls is not given here.

Regarding `Cc1cc(=O)c(C(=O)NCc2c(F)cc(N3CC[C@@H](F)C3)cc2F)nn1-c1cccc(CC(=O)O)c1`, half-maximal inhibition in data set [1] (IC50) required 1.43 µM.
Same read-out and setting: the result for `Cc1cc(=O)c(C(=O)NCc2c(F)cc(N3CCOCC3)cc2F)nn1-c1ccccc1` reads 3.24 µM; that for `Cc1cc(=O)c(C(=O)NCc2c(F)cc(-c3cccc(CO)c3)cc2F)nn1-c1ccccc1`, 5.69 µM.
For `Cc1cc(=O)c(C(=O)NCc2c(F)cc(-c3cccc(C(C)O)c3)cc2F)nn1-c1ccccc1` (configuration not stated), in [1], the IC50 (usually the midpoint of a concentration-inhibition curve) came out at 5.51 µM.
For `Cc1cc(=O)c(C(=O)NCc2c(F)cc(N3CCCC(C)(C)C3)cc2F)nn1-c1ccccc1`, in [1], the half-maximal inhibitory concentration (IC50) is 2.46 µM.
On the same count and under the same terms, the result for `Cc1cc(=O)c(C(=O)NCc2c(F)cc(-c3cccc(C(=O)O)c3)cc2F)nn1-c1ccccc1` reads 2.48 µM; that for `CC(=O)c1cccc(-c2cc(F)c(CNC(=O)c3nn(-c4ccccc4)c(C)cc3=O)c(F)c2)c1`, 8.13 µM; that for `Cc1cc(=O)c(C(=O)NCc2c(F)cc(N3CC[C@@H](F)C3)cc2F)nn1-c1cccc(C(N)=O)c1`, 1.93 µM.
Take `Cc1cc(=O)c(C(=O)N(C)Cc2c(F)cc(C3CCCOC3)cc2F)nn1-c1ccccc1` (configuration not stated): the result in [2], in data set [6], in data set [7], in data set [8], in [10] and in data set [11] was inactive. The result in data set [13] and in data set [16] was inactive. Further, the GI50 in [3], in data set [4], in data set [5], in [9], in [12] and in data set [14] was more than 50 µM each time. The GI50 in data set [17] and in [18] was more than 50 µM throughout. The IC50 in data set [1] is 43.4 µM. The inhibition entry in [15] is “inactive”.
As to `Cc1cc(=O)c(C(=O)NCc2c(F)cc(N3CC[C@H](F)C3)cc2F)nn1-c1cccc(C(=O)O)c1`, the IC50 in data set [1] turned out to be 0.64 µM.
With `CCCC[C@@H](Cc1c(F)cc(-c2cccc(S(=O)(=O)F)c2)cc1F)C(=O)Nc1nnn[nH]1`, the microsomal CLint in [19] amounted to 150 µL/min/mg. For the same molecule, the Papp – broadly, a coefficient for how fast a substance crosses the barrier – at 1.5 h in data set [20] worked out at 0.96 ×10⁻⁶ cm/s.
In the case of `Cc1cc(=O)c(C(=O)NCc2c(F)cc(-c3ccccc3)cc2F)nn1-c1ccccc1`, the IC50 in [1] stood at 15.8 µM.
`Cc1cc(=O)c(C(=O)NCc2c(F)cc(N3CC[C@H](F)C3)cc2F)nn1-c1cccc(C(N)=O)c1` returned an IC50 in data set [1] of 0.95 µM.
On the same count and under the same terms, then `Cc1cc(=O)c(C(=O)NCc2c(F)cc(-c3cncnc3)cc2F)nn1-c1ccccc1`, with 13.8 µM.
